Results from patent US7335663B2, “Heteroaryl compounds which inhibit leukocyte adhesion mediated by α4 integrins” (Elan Pharmaceuticals, Inc., priority 2002, dated 2008).

Assays:
α4β1 Integrin = molecular target: T1, α4β1 Integrin (Homo sapiens, UniProt P05556+P13612); assay: α4β1 Integrin Adhesion Assay: Jurkat cell adhesion to human plasma fibronectin; format: cell-based; conditions: Jurkat cells
T1 construct: endogenous in cells; host or cells: Jurkat cells
Experimental: 96 well plates (Costar 3590 EIA plates) were coated with human fibronectin (Gibco/BRL, cat #33016-023) at a concentration of 10 μg/mL overnight at 4° C. The plates were then blocked with a solution of bovine serum albumin (BSA; 0.3%) in saline. Jurkat™ cells (maintained in log phase growth) were labeled with Calcein AM according to the manufacturer's instructions, and suspended at a concentration of 2×10^6 cells/mL in Hepes/Saline/BSA. The cells were then exposed to test and control compounds for 30 minutes at room temperature before transfer to individual wells of the fibronectin coated plate. Adhesion was allowed to occur for 35 minutes at 37° C. The wells were then washed by gentle aspiration and pipetting with fresh saline. Fluorescence associated with the remaining adherent cells was quantified using a fluorescence plate reader at EX 485/EM 530.
Cell cultures were prepared by first splitting the stationary phase Jurkat™ cells at 1:10 on day one, and 1:2 on day two to perform assay on day 3. The cells split 1:10 on day one were split 1:4 on day 3 for a day 4 assay.
The assay plates were prepared by first making a working solution of Gibco/BRL Human Fibronectin (cat # 33016-023) in PBS++, at 10 μg/mL.
A Costar 3590 EIA plate was then coated with 50 μL/well for 2 hours at room temperature (thought it can also be left overnight at 4° C). Finally the plate was asperated and blocked with Hepes/Saline Buffer, 100 μL/well, for 1 hour at RT followed by washing three times with 150 μL of PBS++.
Compound dilutions were accomplished by preparing 1:3 serial dilutions of compounds as follows. For each plate (4 compounds/plate) 600 μL were added to 4 Bio-Rad Titertubes in a Titertube rack. Enough compound was added to each appropriate tube to give a 2× concentration using methods well known in the art. Using Falcon Flexiplates, 100 μL of Hepes/Saline buffer or human serum were added to rows B through G. A multi-channel pipetter set to 180 μL was used to with four tips spaced evenly the pipetter. Each set of four tubes was mixed 5 times and 180 μL, of 2× compound was transferred to the first column of each compound dilution in Row B, leaving Row A empty. 180 μL were added to the other wells in Row A. Serial dilutions were performed down the plate by transferring 50 μL to the next dilution and mixing 5 times, changing tips each time after mixing. Dilutions were stopped at Row F. Row G had no compound present.
A 20 μg/mL solution in Hepes/Saline buffer or human serum, of 21/6 antibody was the positive control and was set aside in a reagent trough to add to cell suspension plate.
The cell staining was accomplished by first harvesting the log-phase Jurkat™ cells by centrifugation in 50 mL tubes (1100 rpm for 5 minutes). The cells were resuspended in 50 mL PBS++, spun, and resuspend in 20 mL PBS++. The cells were stained by adding 20 μL of Calcein AM for 30 minutes R.T. The volume was brought to 50 mL with Hepes/Saline buffer and the cells were counted, spun, and resuspend to 2×10^6 cells/mL in Hepes/Saline buffer or human serum.
The compounds were incubated using the following procedure. In a new flexiplate, 65 μL of stained cells were added to Rows B through H. Then 65 μL of 2× compounds were added to the appropriate rows following the plate setup and mixed 3×. 65 μL of 2×-21/6 antibody were added to Row H and mixed 3×. Finally the plate was incubated at room temperature for 30 minutes.
Fibronectin adhesion was measured using a fluorescent plate reader at EX 485/EM 530 after the following work up procedure. After incubation, the cells were mixed 3× and 100 μL were transferred to the Fibronectin coated plates and incubated at 37° C. for about 35 minutes. Each plate was washed, row by row, by gently pipetting 100 μL of R.T. PBS++ down the sides of the wells and turning the plate 90 degrees to aspirate. This procedure was repeated for a total of 3 washes. Each well was filled with 100 μL after washing by pipetting down the side of the well. […]

[1] = Cassette dosing and serum analysis for determination of oral bioavailability; format: in vivo, Sprague Dawley (SD) rats; conditions: rats, oral cassette of 6 compounds, total dose 10 mg/kg, plasma samples at 4, 8 and 12 h
Experimental: The oral bioavailability was screened by dosing rats with a cassette, i.e. mixture of 6 compounds per dosing solution. The cassette included 5 test articles and a standard compound, for a total dose of 10 mg/kg. Each compound/test article was converted to the sodium salt with equimolar 1 N NaOH and dissolved in water at 2 mg/mL. The cassette was prepared by mixing equal volumes of each of the six solutions. The cassette dosing solution was mixed well and then the pH was adjusted to 7.5-9. The dosing solution was prepared the day before the study and stirred overnight at room temperature.
Male Sprague Dawley (SD) rats from Charles River Laboratories, 6-8 weeks old were used in this screen. Rats were quarantined for at least one day and had continuous access to food and water. On the night before the administration of the cassette, the rats were fasted for approximately 16 h.
Four SD rats were assigned in each cassette. A single dose of the dosing solution was administered orally to each rat. The dosing volume (5 mL/kg) and time were recorded and rats were fed 2 h after dosing.
Blood samples were collected via cardiac puncture at the following time points: 4 h, 8 h and 12 h. Immediately prior to blood collection, rats were anesthetized with CO2 gas within 10-20 seconds. After the 12-hour samples were collected, the rats were euthanized via CO2 asphyxiation followed by cervical dislocation.
Blood samples were kept in heparinized microtainer tubes under sub-ambient temperature (4° C.) before they were processed. Blood samples were centrifuged (10000 rpm for 5 minutes) and plasma samples were removed and stored in a −20° C. freezer until analyzed for drug levels. Drug levels in the plasma were analyzed using the following protocol for direct plasma precipitation.
The in vivo plasma samples were prepared in a 1.5 mL 96-well plate, by adding, in order, 100 μL of the test plasma, 150 μL of methanol, followed by vortexing for 10-20 seconds. 150 μL of 0.05 ng/μL of an Internal Standard in acetonitrile were added and vortexed for 30 seconds.
The standard curve samples were prepared in a 1.5 mL 96-well plate, by adding, in order, 100 μL of control mouse plasma, followed by 150 μL of methanol and vortexing for 10-20 seconds. 150 μL of 0.05 ng/μL of an Internal Standard in acetonitrile were added and vortexed for 30 seconds. The samples were spiked with 0-200 ng (10 concentrations) of the compound of interest in 50% methanol to obtain a standard curve range of 0.5 ng/mL-2,000 ng/mL. Again, the sample was vortexed for 30 seconds.
The samples were then spun for 20-30 minutes at 3000 rpm in an Eppendorf microfuge before 80-90% of supernatant was transferred into a clean 96-well plate. The organic solvent was then evaporated until the samples were dry (under N2 at 40° C./30-60 min (ZymarkTurbovap)).
The residue was then dissolved in 200-600 L mobile phase (50% CH3OH/0.1% TFA). LC/MS/MS was then run using a PE-Sciex API-3000 triple quadurpole mass spectrometer (SN0749707), Perkin-Elmer, Series200auto-sampler, and shimadzu 10A pump. Acquisition was done with PE-Sciex Analyst (v1.1) and data analysis and quantification were accomplished using PE-Sciex Analyst (v1.1). A 5-50 μL sample volume was injected onto a reverse phase ThermoHypersil DASH-18 column (Keystone 2.0×20 mm, 5 μm, PN: 8823025-701) using a mobile phase of 25% CH3OH, 0.1% TFA-100% CH3OH, 0.1% TFA. The run time was about 8 minutes at a flow rate of about 300 μL/minutes.
The Area Under the Curve (AUC) was calculated using the linear trapezoidal rule from t=0 to the last sampling time tx (see Handbook of Basic Pharmacokinetics, Wolfgang A. Ritschel and Gregory L. Kearns, 5th ed, 1999). AUC^0−+tx=S((Cn+Cn+1)/2))·(tn+1−tn)[(μg/mL)h]
In the case of the cassette dosing paradigm, samples at 4, 8 and 12 h post extravascular dosing, the AUC was calculated from t=0 to t=12 h.

T1 sequence (P13612 34-1032): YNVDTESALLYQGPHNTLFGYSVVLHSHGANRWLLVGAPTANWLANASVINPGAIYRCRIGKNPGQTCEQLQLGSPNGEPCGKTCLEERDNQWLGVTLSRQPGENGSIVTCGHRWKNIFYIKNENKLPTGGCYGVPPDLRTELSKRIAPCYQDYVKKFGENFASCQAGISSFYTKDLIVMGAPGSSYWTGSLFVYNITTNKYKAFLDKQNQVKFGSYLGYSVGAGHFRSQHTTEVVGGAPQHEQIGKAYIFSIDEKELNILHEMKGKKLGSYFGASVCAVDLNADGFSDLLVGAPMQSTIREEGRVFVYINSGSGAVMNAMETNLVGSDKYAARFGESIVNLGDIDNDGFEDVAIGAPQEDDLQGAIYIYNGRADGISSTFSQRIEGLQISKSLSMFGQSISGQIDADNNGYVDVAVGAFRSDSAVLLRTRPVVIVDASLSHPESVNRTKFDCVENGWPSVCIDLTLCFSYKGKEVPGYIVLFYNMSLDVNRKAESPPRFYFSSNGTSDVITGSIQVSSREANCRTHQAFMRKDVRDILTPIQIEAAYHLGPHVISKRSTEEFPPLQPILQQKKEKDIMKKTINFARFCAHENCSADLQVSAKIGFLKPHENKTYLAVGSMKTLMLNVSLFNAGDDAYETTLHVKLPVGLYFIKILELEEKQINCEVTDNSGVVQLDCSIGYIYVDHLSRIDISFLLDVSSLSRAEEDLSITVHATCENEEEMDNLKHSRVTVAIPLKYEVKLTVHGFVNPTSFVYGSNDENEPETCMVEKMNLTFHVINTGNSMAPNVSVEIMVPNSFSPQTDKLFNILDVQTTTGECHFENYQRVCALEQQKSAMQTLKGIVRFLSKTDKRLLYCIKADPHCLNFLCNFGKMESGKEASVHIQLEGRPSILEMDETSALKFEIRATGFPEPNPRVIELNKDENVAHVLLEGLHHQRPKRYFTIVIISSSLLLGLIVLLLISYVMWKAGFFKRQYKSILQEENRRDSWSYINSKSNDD
T1 sequence (P05556 21-798): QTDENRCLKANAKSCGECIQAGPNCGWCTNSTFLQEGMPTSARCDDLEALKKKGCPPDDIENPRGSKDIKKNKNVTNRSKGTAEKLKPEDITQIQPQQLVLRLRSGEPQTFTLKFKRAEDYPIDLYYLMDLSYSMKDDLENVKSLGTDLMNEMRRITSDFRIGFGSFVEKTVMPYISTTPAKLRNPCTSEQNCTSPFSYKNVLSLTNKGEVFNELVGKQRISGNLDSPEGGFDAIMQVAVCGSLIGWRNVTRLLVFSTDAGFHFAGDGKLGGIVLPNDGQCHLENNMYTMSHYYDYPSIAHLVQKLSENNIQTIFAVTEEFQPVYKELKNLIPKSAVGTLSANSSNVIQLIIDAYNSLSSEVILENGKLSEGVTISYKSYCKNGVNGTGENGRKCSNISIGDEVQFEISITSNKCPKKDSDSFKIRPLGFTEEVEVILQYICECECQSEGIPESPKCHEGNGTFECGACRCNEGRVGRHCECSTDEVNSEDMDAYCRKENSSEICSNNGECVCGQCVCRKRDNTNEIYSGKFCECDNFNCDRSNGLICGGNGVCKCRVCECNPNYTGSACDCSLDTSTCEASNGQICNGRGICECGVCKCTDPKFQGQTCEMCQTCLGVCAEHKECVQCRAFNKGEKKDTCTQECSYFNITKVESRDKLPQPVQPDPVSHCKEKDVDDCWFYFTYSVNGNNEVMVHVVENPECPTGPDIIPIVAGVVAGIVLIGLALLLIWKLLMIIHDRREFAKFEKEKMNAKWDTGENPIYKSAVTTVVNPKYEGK

Substance	IC50, Cell Adhesion to Human Plasma Fibronectin (With human serum) (α4β1 Integrin)	IC50, Cell Adhesion to Human Plasma Fibronectin (Without the human serum) (α4β1 Integrin)	AUC (average AUC 0-12 h) [1]
2-{2-diethylamino-5-[(2,5-difluorobenzenesulfonyl)methylamino]pyrimidin-4-ylamino}-3-(4-dimethylcarbamoyloxyphenyl)propionic acid [Example 25]	6.72 µg/mL	0.006 µg/mL	0.4559 (μg/mL)h
2-{2-diethylamino-5-[(3,5-dichlorobenzenesulfonyl)methylamino]pyrimidin-4-ylamino}-3-(4-dimethylcarbamoyloxyphenyl)propionic acid [Example 19]	0.08535 µg/mL	0.003393 µg/mL	0.0697 (μg/mL)h
2-{2-diethylamino-5-[(chlorobenzenesulfonyl)ethylamino]pyrimidin-4-ylamino}-3-(4-dimethylcarbamoyloxyphenyl)propionic acid [Example 13]	0.075 µg/mL	0.004 µg/mL	1.5806 (μg/mL)h
2-{2-diethylamino-5-[(3,5-dichlorobenzenesulfonyl)ethylamino]pyrimidin-4-ylamino}-3-(4-dimethylcarbamoyloxyphenyl)propionic acid [Example 20]	0.07751 µg/mL	0.005114 µg/mL	0.0536 (μg/mL)h
2-{2-diethylamino-5-[(3,4-difluorobenzenesulfonyl)ethylamino]pyrimidin-4-ylamino}-3-(4-dimethylcarbamoyloxyphenyl)propionic acid [Example 12]	0.06 µg/mL	0.003 µg/mL	0.8447 (μg/mL)h
2-{2-diethylamino-5-[(3,4-dichlorobenzenesulfonyl)methylamino]pyrimidin-4-ylamino}-3-(4-dimethylcarbamoyloxyphenyl)propionic acid [Example 4]	0.4 µg/mL	0.004 µg/mL	0.5965 (μg/mL)h
2-{2-diethylamino-5-[(3,5-difluorobenzenesulfonyl)methylamino]pyrimidin-4-ylamino}-3-(4-dimethylcarbamoyloxyphenyl)propionic acid [Example 15]	0.1243 µg/mL	0.000915 µg/mL	0.2098 (μg/mL)h
2-{2-diethylamino-5-[(2,3-difluorobenzenesulfonyl)ethylamino]pyrimidin-4-ylamino}-3-(4-dimethylcarbamoyloxyphenyl)propionic acid [Example 26]	0.01848 µg/mL	0.001 µg/mL	0.3392 (μg/mL)h
2-{2-diethylamino-5-[(3,5-difluorobenzenesulfonyl)ethylamino]pyrimidin-4-ylamino}-3-(4-dimethylcarbamoyloxyphenyl)propionic acid [Example 16]	0.06707 µg/mL	0.001035 µg/mL	0.1721 (μg/mL)h
2-{2-diethylamino-5-[(2,4-difluorobenzenesulfonyl)ethylamino]pyrimidin-4-ylamino}-3-(4-dimethylcarbamoyloxyphenyl)propionic acid [Example 18]	0.025 µg/mL	0.002 µg/mL	0.2578 (μg/mL)h
2-{2-diethylamino-5-[(3-fluorobenzenesulfonyl)methylamino]pyrimidin-4-ylamino}-3-(4-dimethylcarbamoyloxyphenyl)propionic acid [Example 7]	0.5869 µg/mL	0.000821 µg/mL	0.717 (μg/mL)h
2-{2-diethylamino-5-[(2,4-difluorobenzenesulfonyl)methylamino]pyrimidin-4-ylamino}-3-(4-dimethylcarbamoyloxyphenyl)propionic acid [Example 17]	0.024 µg/mL	0.001 µg/mL	1.0075 (μg/mL)h
